We go through nine compounds from patent US7150969B2 (Rosetta Inpharmatics LLC, priority 2004, dated 2006).

The target in assay [1] is T1, ACC2 (Homo sapiens, UniProt O00763).
T1 construct: V5-His (vector pcDNA5/FRT/V5-His TOPO) (C); made in house; host or cells: mouse mammary carcinoma cell line FM-3A (pEF vector, G418 selection)
Briefly: 14CO2 fixation ACC activity assay, ACC2. Format: biochemical. The conditions noted are these: 37° C., 40 minutes, pH 7.5, 20 mM citrate; read-out: Km of ACC2 against substrate. The source says:
(§1) ACC2 and ACC2sv1 clones from cloning Method 2 of Example 2 were digested with AvrII and PmeI restriction enzymes and then subcloned into pEF cDNA expression vector (Invitrogen, Carlsbad, Calif.) which was digested by SpeI and EcoRV. The ACC2 and ACC2sv1 expression vectors were introduced into a mouse mammary carcinoma cell line FM-3A (RIKEN cell bank, #RCB0086) using the Lipofectaimine 2000 (Invitrogen, Carlsbad, Calif.) or Effectene Transfection Reagent (Qiagen, Hilden, Germany), according to manufacturer's instructions. […] ACC2 and ACC2sv1 protein levels were measured by Western blot analysis using HRP-conjugated streptavidin (Invitrogen, Carlsbad, Calif.). […]
(§2) The following protein extraction and purification procedures were performed at 4° C. unless noted. […] The remaining proteins were eluted from the column by imidazole at 0–500 mM, and the elution fractions were monitored by spectrophotometry at 280 nm. ACC1, ACC2, and ACC2sv1 protein and activity in each fraction were measured.
(§3) ACC1, ACC2, and ACC2sv1 activity were measured by a standard ^14CO2 fixation assay that measures the incorporation of [^14C]bicarbonate into [^14C]malonyl-CoA, and separates the product from unused substrate at the end of the reaction through acidification, which serves to both quench the reaction and remove residual radiolabeled substrate as ^14CO2. […]

Assay [2] concerns the target T2, ACC1 (Homo sapiens, UniProt Q13085).
T2 construct: to produce a full length ACC1 cDNA clone; V5-His (vector pcDNA5/FRT/V5-His TOPO) (C); made in house; host or cells: Sf9 insect cells (baculovirus, pBacPAK9)
Nature of the assay: 14CO2 fixation ACC activity assay, ACC1. Format: biochemical. The conditions noted are these: 37° C., 40 minutes, pH 7.5, 20 mM citrate; read-out: Km of ACC1 against substrate. The procedure:
ACC1 clone from Example 2 was digested with AvrII and PmeI restriction enzymes and then subcloned into pBacPAK9 (BD Biosciences, Mountainview, Calif.) transfer vector, which was then digested with XbaI and StuI for generating baculovirus. The viral particles were generated in Sf9 insect cells using the reagents and instructions provided by the BacPAK Baculovirus Expression System (BD Biosciences, Mountainview, Calif.).
The Sf9 cells were grown in Grace's Insect Cell Culture Medium (Invitrogen, Carlsbad, Calif.) containing 10% fetal bovine serum, 0.1 mg/ml kanamicin, and 0.1% PLURONIC® F-68 (Invitrogen, Carlsbad, Calif.) at 30° C. and 5% CO2. […]
as §2, §3

In the next assay the target is T3, ACC2sv1 (Homo sapiens, UniProt O00763, V2141I).
T3 construct: to yield a full-length ACC2sv1 clone; made in house; host or cells: mouse mammary carcinoma cell line FM-3A (pEF vector, G418 selection)
T3 sequence (O00763 1-2256 isoform O00763-3 V1939I): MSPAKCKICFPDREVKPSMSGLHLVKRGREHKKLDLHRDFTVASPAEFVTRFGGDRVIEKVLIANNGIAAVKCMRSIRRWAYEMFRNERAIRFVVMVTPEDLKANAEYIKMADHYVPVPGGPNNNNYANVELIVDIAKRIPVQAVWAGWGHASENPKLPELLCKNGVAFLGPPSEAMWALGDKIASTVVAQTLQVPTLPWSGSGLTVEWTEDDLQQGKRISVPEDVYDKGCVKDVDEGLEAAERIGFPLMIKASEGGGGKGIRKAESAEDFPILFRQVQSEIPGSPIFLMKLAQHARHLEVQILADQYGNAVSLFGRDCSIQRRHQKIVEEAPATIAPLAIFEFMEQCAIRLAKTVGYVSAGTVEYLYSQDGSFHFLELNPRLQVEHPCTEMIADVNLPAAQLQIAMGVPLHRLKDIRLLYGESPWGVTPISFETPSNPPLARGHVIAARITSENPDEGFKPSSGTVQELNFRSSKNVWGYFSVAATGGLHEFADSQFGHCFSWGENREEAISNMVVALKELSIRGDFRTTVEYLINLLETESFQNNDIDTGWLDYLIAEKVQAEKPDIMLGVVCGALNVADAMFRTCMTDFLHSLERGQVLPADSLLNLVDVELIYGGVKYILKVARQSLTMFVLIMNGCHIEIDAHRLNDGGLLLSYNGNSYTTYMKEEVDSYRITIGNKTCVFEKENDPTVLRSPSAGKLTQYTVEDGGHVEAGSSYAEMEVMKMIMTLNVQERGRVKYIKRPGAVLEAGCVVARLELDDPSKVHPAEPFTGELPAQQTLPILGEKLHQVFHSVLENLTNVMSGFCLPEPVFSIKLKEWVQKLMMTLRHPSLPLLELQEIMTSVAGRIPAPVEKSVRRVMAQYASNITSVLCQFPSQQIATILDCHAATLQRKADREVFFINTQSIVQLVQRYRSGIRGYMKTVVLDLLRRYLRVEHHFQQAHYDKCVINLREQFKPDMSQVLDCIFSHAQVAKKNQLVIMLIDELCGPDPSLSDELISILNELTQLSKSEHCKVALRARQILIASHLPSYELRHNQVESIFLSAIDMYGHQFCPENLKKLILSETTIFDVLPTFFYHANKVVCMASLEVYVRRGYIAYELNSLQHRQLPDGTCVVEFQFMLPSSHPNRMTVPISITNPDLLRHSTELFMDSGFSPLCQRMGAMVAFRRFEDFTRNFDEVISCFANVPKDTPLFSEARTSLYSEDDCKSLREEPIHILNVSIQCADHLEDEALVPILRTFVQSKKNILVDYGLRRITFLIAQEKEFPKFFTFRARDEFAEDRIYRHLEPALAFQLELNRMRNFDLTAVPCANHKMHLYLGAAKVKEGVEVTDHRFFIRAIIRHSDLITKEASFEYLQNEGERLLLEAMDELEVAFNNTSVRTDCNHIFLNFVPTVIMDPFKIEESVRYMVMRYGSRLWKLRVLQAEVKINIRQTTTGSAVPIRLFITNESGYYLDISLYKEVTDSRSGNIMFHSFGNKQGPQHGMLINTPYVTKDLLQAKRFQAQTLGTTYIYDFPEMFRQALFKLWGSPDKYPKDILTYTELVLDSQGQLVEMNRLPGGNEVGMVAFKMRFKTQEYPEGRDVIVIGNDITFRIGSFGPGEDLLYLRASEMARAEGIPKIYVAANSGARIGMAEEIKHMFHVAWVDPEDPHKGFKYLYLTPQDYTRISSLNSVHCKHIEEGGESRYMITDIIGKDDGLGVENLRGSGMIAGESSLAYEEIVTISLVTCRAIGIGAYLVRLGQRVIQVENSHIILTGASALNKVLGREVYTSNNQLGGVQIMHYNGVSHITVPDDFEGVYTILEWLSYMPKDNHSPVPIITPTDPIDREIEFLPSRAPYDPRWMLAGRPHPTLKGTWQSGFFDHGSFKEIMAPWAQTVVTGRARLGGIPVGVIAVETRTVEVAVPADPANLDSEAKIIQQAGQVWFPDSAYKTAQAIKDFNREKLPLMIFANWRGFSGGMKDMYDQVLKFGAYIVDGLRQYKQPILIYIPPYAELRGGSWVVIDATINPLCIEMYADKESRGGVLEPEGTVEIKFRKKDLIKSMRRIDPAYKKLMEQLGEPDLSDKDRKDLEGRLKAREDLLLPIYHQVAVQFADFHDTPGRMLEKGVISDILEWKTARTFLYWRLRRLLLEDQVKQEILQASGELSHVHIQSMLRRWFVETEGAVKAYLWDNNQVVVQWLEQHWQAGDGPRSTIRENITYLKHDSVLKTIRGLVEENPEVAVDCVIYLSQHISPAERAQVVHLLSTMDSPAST
Briefly: 14CO2 fixation ACC activity assay, ACC2sv1. It counts as biochemical. The note with it: 37° C., 40 minutes, pH 7.5, 20 mM citrate; read-out: Km of ACC2sv1 against substrate.
Text: as §1, §2, §3

Assay [3] has as its system ACC1. The note with it: cited from earlier work.
Assay [4] concerns ACC2. The conditions noted are these: cited from earlier work.
Another assay concerns ACC. The conditions noted are these: ESP 55016 converted to ESP 55016-CoA; cited from earlier work.
The conditions of assay [5]: rat model of diabetic dyslipidemia; cited from earlier work.
Assay [6] concerns fatty acid synthesis and fatty acid oxidation. The note with it: cited from earlier work.
The test system of a further assay is ACCs from plants. The note with it: cited from earlier work.

Molecules are shown by their SMILES.

T1 sequence (O00763 whole entry): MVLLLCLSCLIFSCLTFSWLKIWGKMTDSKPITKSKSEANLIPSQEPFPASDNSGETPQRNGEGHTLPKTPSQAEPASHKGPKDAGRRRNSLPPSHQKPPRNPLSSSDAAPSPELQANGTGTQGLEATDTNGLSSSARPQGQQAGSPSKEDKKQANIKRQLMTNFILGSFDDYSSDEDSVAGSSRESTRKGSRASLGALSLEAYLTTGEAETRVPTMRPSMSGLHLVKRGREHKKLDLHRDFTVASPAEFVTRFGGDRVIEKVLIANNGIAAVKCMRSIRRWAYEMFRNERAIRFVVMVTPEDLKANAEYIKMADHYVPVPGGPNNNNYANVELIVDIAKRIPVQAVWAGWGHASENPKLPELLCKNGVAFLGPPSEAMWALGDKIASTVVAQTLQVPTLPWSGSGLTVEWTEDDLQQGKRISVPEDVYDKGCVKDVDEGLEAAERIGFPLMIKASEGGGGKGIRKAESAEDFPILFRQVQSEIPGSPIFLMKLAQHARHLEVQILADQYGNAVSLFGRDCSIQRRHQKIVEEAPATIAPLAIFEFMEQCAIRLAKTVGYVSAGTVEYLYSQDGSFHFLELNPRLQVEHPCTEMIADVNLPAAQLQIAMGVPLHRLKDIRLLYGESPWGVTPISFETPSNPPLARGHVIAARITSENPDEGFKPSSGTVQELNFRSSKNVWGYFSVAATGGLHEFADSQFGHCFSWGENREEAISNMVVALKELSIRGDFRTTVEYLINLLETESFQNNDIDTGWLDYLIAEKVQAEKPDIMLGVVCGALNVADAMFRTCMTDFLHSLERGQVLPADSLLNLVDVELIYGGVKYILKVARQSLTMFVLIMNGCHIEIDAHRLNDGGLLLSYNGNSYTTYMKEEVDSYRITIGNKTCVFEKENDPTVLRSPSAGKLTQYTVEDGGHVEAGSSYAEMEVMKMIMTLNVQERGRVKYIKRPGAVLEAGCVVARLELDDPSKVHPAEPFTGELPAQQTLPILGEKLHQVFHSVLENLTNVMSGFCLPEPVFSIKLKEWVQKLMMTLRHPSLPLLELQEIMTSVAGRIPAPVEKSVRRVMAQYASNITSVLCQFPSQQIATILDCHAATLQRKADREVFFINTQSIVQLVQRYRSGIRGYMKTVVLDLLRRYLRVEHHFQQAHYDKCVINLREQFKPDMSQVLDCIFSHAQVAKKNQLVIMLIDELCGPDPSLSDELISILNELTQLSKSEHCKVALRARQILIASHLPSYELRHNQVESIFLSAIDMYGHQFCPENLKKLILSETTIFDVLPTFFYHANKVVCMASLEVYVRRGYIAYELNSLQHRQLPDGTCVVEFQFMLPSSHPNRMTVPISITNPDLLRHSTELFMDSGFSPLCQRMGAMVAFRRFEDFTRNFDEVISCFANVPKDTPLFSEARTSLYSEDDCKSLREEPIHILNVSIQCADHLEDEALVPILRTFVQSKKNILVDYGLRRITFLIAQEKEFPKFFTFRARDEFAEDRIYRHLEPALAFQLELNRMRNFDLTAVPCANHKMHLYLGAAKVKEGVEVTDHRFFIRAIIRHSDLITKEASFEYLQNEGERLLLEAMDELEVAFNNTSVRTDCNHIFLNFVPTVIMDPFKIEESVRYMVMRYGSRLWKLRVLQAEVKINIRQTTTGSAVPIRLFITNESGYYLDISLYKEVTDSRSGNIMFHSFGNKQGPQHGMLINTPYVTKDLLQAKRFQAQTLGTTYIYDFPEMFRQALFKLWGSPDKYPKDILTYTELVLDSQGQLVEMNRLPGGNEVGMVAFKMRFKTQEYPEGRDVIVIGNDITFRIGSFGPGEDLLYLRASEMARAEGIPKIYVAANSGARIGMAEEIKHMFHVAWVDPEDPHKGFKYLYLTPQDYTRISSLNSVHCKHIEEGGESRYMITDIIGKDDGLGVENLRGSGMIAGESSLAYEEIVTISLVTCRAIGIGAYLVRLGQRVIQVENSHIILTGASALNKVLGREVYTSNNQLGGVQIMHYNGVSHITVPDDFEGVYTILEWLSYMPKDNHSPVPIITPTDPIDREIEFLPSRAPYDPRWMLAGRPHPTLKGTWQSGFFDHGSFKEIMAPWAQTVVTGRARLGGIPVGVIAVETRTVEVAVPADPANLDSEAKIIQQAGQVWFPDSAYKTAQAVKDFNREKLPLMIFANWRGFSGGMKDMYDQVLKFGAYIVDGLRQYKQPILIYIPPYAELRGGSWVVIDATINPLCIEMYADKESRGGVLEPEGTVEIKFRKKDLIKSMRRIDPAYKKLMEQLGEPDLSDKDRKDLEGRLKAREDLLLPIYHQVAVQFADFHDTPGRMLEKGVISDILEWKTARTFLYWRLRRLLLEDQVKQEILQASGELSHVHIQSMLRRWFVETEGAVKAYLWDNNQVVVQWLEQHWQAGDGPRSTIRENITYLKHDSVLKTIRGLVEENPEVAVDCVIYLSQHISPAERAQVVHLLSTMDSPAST

`Nc1ncnc2c1ncn2[C@@H]1O[C@H](COP(=O)(O)OP(=O)(O)OP(=O)(O)O)[C@@H](O)[C@H]1O` [ATP]: the values for the Km on ACC2 [1], on ACC1 [2] and at ACC2sv1 were 44 µM, 54 µM and 109 µM, respectively.
With `CCN(CC)C(=O)[C@@H]1CCCN(C2CCN(C(=O)c3c4ccccc4cc4ccccc34)CC2)C1` [CP-610431], the “Inhibition of ACC1” value in the assay with ACC1 [3] is recorded as “inhibit”. The “Inhibition of ACC2” value with ACC2 [4] is listed as “inhibit”.
As for `O=C(c1c2ccccc2cc2ccccc12)N1CCC(N2CCC[C@@H](C(=O)N3CCOCC3)C2)CC1` [CP-640186], in the assay with ACC1 [3], the “Inhibition of ACC1” value is given as “inhibit”. Further, in the assay with ACC2 [4], the “Inhibition of ACC2” value is listed as “inhibit”.
Regarding `CC(C)(CCCCCC(O)CCCCCC(C)(C)C(=O)SCCNC(=O)CCNC(=O)[C@H](O)C(C)(C)COP(=O)(O)OP(=O)(O)OC[C@H]1O[C@@H](n2cnc3c(N)ncnc32)[C@H](O)[C@@H]1OP(=O)(O)O)C(=O)O` (some centres unmarked) [ESP 55016-CoA], the “Inhibition of ACC activity” value in the assay on ACC is given as “directly inhibits”.
Consider `CC(C)(CCCCCC(O)CCCCCC(C)(C)C(=O)O)C(=O)O` [ESP 55016], for which the Serum lipid levels result in [5] is on record as “favorably alter”. Moreover, in assay [6], the Fatty acid oxidation result is “enhanced” and the Fatty acid synthesis result is “inhibited”.
Consider `O=C(O)O` [HCO3], for which the figures for the Km at ACC2 [1], at ACC1 [2] and on ACC2sv1 were 2890 µM, 6470 µM and 6510 µM, respectively.
For `CC(Oc1ccc(Oc2ccc(Cl)cc2Cl)cc1)C(=O)O` (centres unmarked) [diclofop], the “Inhibition of ACCs from plants” value in the assay on ACCs from plants is “potent inhibitors”.
As for `CC(Oc1ccc(Oc2ncc(C(F)(F)F)cc2Cl)cc1)C(=O)O` (centres unmarked) [haloxyfop], the “Inhibition of ACCs from plants” value in the assay with ACCs from plants is on record as “potent inhibitors”.
Consider `CCC/C(=N\OCC)C1=C(O)CC(CC(C)SCC)CC1=O` (centres unmarked) [sethoxydim], for which the “Inhibition of ACCs from plants” value with ACCs from plants was “potent inhibitors”.

As usually defined, the Km is the concentration of substrate that gives half-maximal velocity.
